Test results as given in PubChem BioAssay AID220 (DTP/NCI, 2004).
Several values for one entry are separate records, joined by “and”; a condition that tells them apart may be missing. Equal values may be shown once. Results filed as inconclusive are left out.

Test system: CD8F1 mice, subcutaneous mammary adenocarcinoma, T/C%
Assay: NCI In Vivo Anticancer Drug Screen. Data for tumor model Mammary Adenocarcinoma CD8F1 (subcutaneous) in CD8F1
Conditions: higher = larger tumour
Procedure, shortened: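 Compound-treated versus vehicle-treated mice with transplantable tumors; survival or tumor size compared as T/C.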

[1] = endpoint: median tumor weight change, dose: 6.0 mg/kg/injection, schedule: Q01DX001 (ip), vehicle: saline
[2] = endpoint: median tumor weight change, dose: 12.0 mg/kg/injection, schedule: Q01DX001 (ip), vehicle: saline
[3] = endpoint: median tumor weight change, dose: 24.0 mg/kg/injection, schedule: Q01DX001 (ip), vehicle: saline

**Q.** What does the source list for O=c1[nH]c(=O)n(C2CC(O)C(CO)O2)cc1C(F)(F)F (stereo unspecified)?
**A.** T/C (endpoint: mean tumor weight, dose: 125.0 mg/kg/injection, schedule: Q07DX005 (ip), vehicle: saline): 65 % of control; T/C (endpoint: mean tumor weight, dose: 250.0 mg/kg/injection, schedule: Q07DX005 (ip), vehicle: saline): 84 % of control; T/C (endpoint: mean tumor weight, dose: 250.0 mg/kg/injection, schedule: Q07DX008 (ip), vehicle: saline): 184 % of control; T/C (endpoint: mean tumor weight, dose: 500.0 mg/kg/injection, schedule: Q07DX005 (ip), vehicle: saline): 59 % of control; T/C (endpoint: mean tumor weight, dose: 500.0 mg/kg/injection, schedule: Q07DX008 (ip), vehicle: saline): 55 % of control; T/C (endpoint: mean tumor weight, dose: 750.0 mg/kg/injection, schedule: Q07DX008 (ip), vehicle: saline): 68 % of control; T/C (endpoint: median tumor weight (est.), dose: 12.5 mg/kg/injection, schedule: Q07DX005 (ip), vehicle: suspension in saline): 28 % of control; T/C (endpoint: median tumor weight (est.), dose: 250.0 mg/kg/injection, schedule: Q07DX005 (ip), vehicle: suspension in saline): 100 % of control; T/C (endpoint: median tumor weight (est.), dose: 500.0 mg/kg/injection, schedule: Q07DX005 (ip), vehicle: suspension in saline): 26 % of control

**Q.** With O=C1N[C@@H]([C@H]2CC[C@H](Cl)CN2)C(=O)N[C@H]1[C@H]1CC[C@H](Cl)CN1 as the compound, how does the T/C (endpoint: median tumor weight (est.), dose: 0.75 mg/kg/injection, schedule: Q07DX005 (ip), vehicle: saline) read?
**A.** 40 % of control

**Q.** What about the T/C (endpoint: median tumor weight (est.), dose: 1.5 mg/kg/injection, schedule: Q07DX005 (ip), vehicle: saline) of the same compound?
**A.** 29 % of control

**Q.** And the T/C (endpoint: median tumor weight (est.), dose: 3.0 mg/kg/injection, schedule: Q07DX005 (ip), vehicle: saline)?
**A.** 11 % of control

**Q.** For O=C(CN1CCOCC1)Nc1nc(-c2ccc(Cl)cc2)cs1, which T/C (endpoint: median tumor weight change, dose: 50.0 mg/kg/injection, schedule: Q01DX001 (ip), vehicle: saline with Tween-80) is on record?
**A.** 47 % of control

**Q.** What about the T/C (endpoint: median tumor weight change, dose: 100.0 mg/kg/injection, schedule: Q01DX001 (ip), vehicle: saline with Tween-80) of the same compound?
**A.** 20 % of control

**Q.** And the T/C (endpoint: median tumor weight change, dose: 200.0 mg/kg/injection, schedule: Q01DX001 (ip), vehicle: saline with Tween-80)?
**A.** 49 % of control

**Q.** What about the T/C (endpoint: median tumor weight change, dose: 400.0 mg/kg/injection, schedule: Q01DX001 (ip), vehicle: saline with Tween-80) of the same compound?
**A.** 35 % of control

**Q.** What about the T/C (endpoint: median tumor weight change, dose: 800.0 mg/kg/injection, schedule: Q01DX001 (ip), vehicle: saline with Tween-80) of the same compound?
**A.** 28 % of control

**Q.** What does the source list for C=C(C)[C@H]1Cc2c(ccc3c2O[C@@H]2COc4cc(OC)c(OC)cc4[C@@H]2C3=O)O1?
**A.** T/C (endpoint: median tumor weight (est.), dose: 4.0 mg/kg/injection, schedule: Q07DX005 (ip), vehicle: saline): 95 % of control; T/C (endpoint: median tumor weight (est.), dose: 8.0 mg/kg/injection, schedule: Q07DX005 (ip), vehicle: saline): 85 % of control; T/C (endpoint: median tumor weight (est.), dose: 16.0 mg/kg/injection, schedule: Q07DX005 (ip), vehicle: saline): 102 % of control; T/C (endpoint: median tumor weight (est.), dose: 32.0 mg/kg/injection, schedule: Q07DX005 (ip), vehicle: saline): 95 % of control

**Q.** How did the T/C (endpoint: median tumor weight change, dose: 1.5 mg/kg/injection, schedule: Q01DX001 (ip), vehicle: saline) turn out when CC(C)NCC(O)COc1ccc(O)c(O)c1 (stereo unspecified) was run?
**A.** 84 % of control

**Q.** And the T/C [1]?
**A.** 89 % of control and 105 % of control

**Q.** And the T/C [2]?
**A.** 72 % of control and 97 % of control

**Q.** What about the T/C [3] of the same compound?
**A.** 102 % of control

**Q.** What about the T/C (endpoint: median tumor weight change, dose: 125.0 mg/kg/injection, schedule: Q01DX001 (ip), vehicle: saline) of the same compound?
**A.** 77 % of control and 96 % of control

**Q.** How did the T/C (endpoint: median tumor weight change, dose: 3.0 mg/kg/injection, schedule: Q01DX001 (ip), vehicle: saline) turn out when [N-]=[N+]=[N-] was run?
**A.** 72 % of control

**Q.** And the T/C [1]?
**A.** 104 % of control

**Q.** What about the T/C [2] of the same compound?
**A.** 122 % of control

**Q.** And the T/C [3]?
**A.** 66 % of control

**Q.** CCCCCCCCCCCCCCCCCCCCCC(=O)Nc1ccn(C2OC(CO)C(O)C2O)c(=O)n1 (stereo unspecified) was tested. Which T/C (endpoint: median tumor weight (est.), dose: 12.5 mg/kg/injection, schedule: Q07DX005 (ip), vehicle: saline with Tween-80) did it give?
**A.** 104 % of control

**Q.** And the T/C (endpoint: median tumor weight (est.), dose: 25.0 mg/kg/injection, schedule: Q07DX005 (ip), vehicle: saline with Tween-80)?
**A.** 68 % of control

**Q.** And the T/C (endpoint: median tumor weight (est.), dose: 50.0 mg/kg/injection, schedule: Q07DX005 (ip), vehicle: saline with Tween-80)?
**A.** 75 % of control

**Q.** And the T/C (endpoint: median tumor weight (est.), dose: 100.0 mg/kg/injection, schedule: Q07DX005 (ip), vehicle: saline with Tween-80)?
**A.** 69 % of control

**Q.** What about the T/C (endpoint: median tumor weight (est.), dose: 200.0 mg/kg/injection, schedule: Q07DX005 (ip), vehicle: saline with Tween-80) of the same compound?
**A.** 49 % of control

**Q.** And the T/C (endpoint: median tumor weight (est.), dose: 400.0 mg/kg/injection, schedule: Q07DX005 (ip), vehicle: saline with Tween-80)?
**A.** 53 % of control

**Q.** CCCCN(CCCC)C(Cl)=Nc1ccccc1 was tested. Which T/C (endpoint: median tumor weight change, dose: 125.0 mg/kg/injection, schedule: Q01DX001 (ip), vehicle: Klucel (hydroxypropylcellulose) (HPC)) did it give?
**A.** 82 % of control and 107 % of control

**Q.** With COc1cc(OC)c(NC(=O)ON2C(=O)c3ccccc3C2=O)cc1Cl as the compound, how does the T/C (endpoint: median tumor weight change, dose: 31.25 mg/kg/injection, schedule: Q01DX001 (ip), vehicle: saline with Tween-80) read?
**A.** 62 % of control

**Q.** And the T/C (endpoint: median tumor weight change, dose: 62.5 mg/kg/injection, schedule: Q01DX001 (ip), vehicle: saline with Tween-80)?
**A.** 81 % of control

**Q.** And the T/C (endpoint: median tumor weight change, dose: 125.0 mg/kg/injection, schedule: Q01DX001 (ip), vehicle: saline with Tween-80)?
**A.** 92 % of control

**Q.** And the T/C (endpoint: median tumor weight change, dose: 500.0 mg/kg/injection, schedule: Q01DX001 (ip), vehicle: saline with Tween-80)?
**A.** 26 % of control
